The term pIC50 denotes the negative decadic logarithm of the IC50, by convention in mol/L. Read a high pIC50 as a low IC50.

pIC50: −log10 of the molar value.

This assay deals with KB. Put plainly: Cytotoxicity against human KB cells. Type of assay: functional, cell-based.

`C#CCCC[C@@H](O)[C@@H](C)[C@@H]1C/C=C(\C)C(=O)O[C@H](CC(C)C)C(=O)N[C@@H](C)C(=O)N(C)[C@H](Cc2ccccc2)C(=O)N(C)CC(=O)N[C@H]([C@H](C)CC)C(=O)N(C)[C@@H](C)C(=O)O1` [PALAU'AMIDE] showed a pIC50 of 7.89.

The values above are taken from ChEMBL document CHEMBL1147259, “The structure of Palau'amide, a potent cytotoxin from a species of the marine cyanobacterium Lyngbya” (J Nat Prod, 2003).
